Test results reported in patent US20100120788A1, “IDENTIFICATION OF POLYNUCLEOTIDES FOR […] OF COMPOUNDS THAT […] WITH AND/OR MODULATE PROTEIN TYROSINE KINASES AND/OR PROTEIN TYROSINE KINASE […] IN PROSTATE CELLS” (Bristol-Myers Squibb Company, priority 2007, published 2010).

What was measured:
Assay type in all cases: cell-based, human
[1] = test system: PWR1E, RWPE2, PC3, DU145 and LNCaP cells; assay: Microarray gene expression profiling of drug-treated vs mock-treated cell lines (genes modulated by BMS-A)
Protocol: AFFYMETRIX® HG-U133v2 gene chips containing ˜22,000 probe sets were used for gene expression profiling (Affymetrix, Santa Clara, Calif.). Total RNA was isolated from the cells using the RNeasy kits (Qiagen, Valencia, Calif.). The quality of the RNA was assessed using an Agilent 2100 Bioanalyzer (Agilent, Santa Clara, Calif.). Ten μg of total RNA was used for the preparation of biotin-labeled cRNA. Chip hybridization, scanning and data acquisition were performed according to the Expression Analysis Technical Manual provided by the manufacturer.
The raw expression data were normalized using an RMA algorithm and analyzed in PARTEK® Discovery Suite software (Partek, St Louis, Mo.). Two statistical analyses including 1-way ANOVA for comparison of gene expression between sensitive and resistant cell line groups, and Pearson correlation between gene expression level and log2IC50 values were performed to identify genes whose baseline expression levels correlated with the sensitivity to dasatinib in 16 prostate cell lines (p value<0.05 in both analyses). […] ESTs and gene duplicates were eliminated from the final list. Gene expression profiles of drug treated (100 nM for 2 days) cell lines were compared with those of DMSO control using paired t-test (p value<0.05). Clustering analysis was performed using GeneCluster software and heatmaps were generated with red and green indicating high or low expression respectively.

W99 = assay: In vitro cell proliferation assay (MTS); conditions: W99 cells
Protocol: (§1) The IC50 for each cell line was assessed in by MTS assays as described in Example 1 (Methods). […] The IC50 unit is μM.
(§2) All cell lines were obtained from the American Type Culture Collection (Manassas, Va.), except DUCaP, which was obtained from Dr. Kenneth Pienta at University of Michigan. PWR1E and MDAPCa2b cells were grown in BRFF-HPC1 serum-free medium (AthenaES, Baltimore, Md.), and all other cells were cultured in RPMI 1640 supplemented with 10% fetal bovine serum, 100 IU/ml penicillin, and […] (Invitrogen, Carlsbad, Calif.). DUCaP cells were maintained in the presence of an immortalized mouse fibroblast cell line, which formed a layer beneath DUCaP cells that easily dislodged. Cells were incubated at 37° C. with circulation of 5% CO2.
(§3) The optimum number of cells to seed in 96-well plates to achieve linearity were determined in pilot experiments. Cells were plated at density of 2000-5000 cells/well into 96-well plates and cultured overnight. Cells were then treated with dasatinib at serially diluted concentrations. Three days later, MTS was added to the medium and quantified on a SPECTRAMAX® photometric plate reader (Molecular Devices, Sunnyvale, Calif.) at 490 nm. The results were plotted against drug concentrations and IC50s were calculated using Prism4 software (GraphPad, San Diego, Calif.). The IC50 was the concentration of dasatinib that would reduce cell proliferation by 50% compared to control. Minimum three independent assays were performed for each cell line. […] In the latter case, the concentration of dasatinib that was able to consistently reduce cell proliferation was used as IC50. […] Dasatinib stock, dissolved in DMSO, was 10 mg/ml.

WPMY1 = assay: In vitro cell proliferation assay (MTS); conditions: WPMY1 cells
Protocol: as §1, §2, §3

RWPE2 = assay: In vitro cell proliferation assay (MTS); conditions: RWPE2 cells
Protocol: as §1, §2, §3

NB11 = assay: In vitro cell proliferation assay (MTS); conditions: NB11 cells
Protocol: as §1, §2, §3

LNCaP = assay: In vitro cell proliferation assay (MTS); conditions: LNCaP cells
Protocol: as §1, §2, §3

DU145 = assay: In vitro cell proliferation assay (MTS); conditions: DU145 cells
Protocol: as §1, §2, §3

[2] = 100 nM for 2 days vs DMSO control, paired t-test p<0.05, 5 sensitive cell lines
[3] = Homo sapiens, 72 h, MTS, three days, read-out: mean IC50 (μM) to BMS-A

Cc1nc(Nc2ncc(C(=O)Nc3c(C)cccc3Cl)s2)cc(N2CCN(CCO)CC2)n1 [BMS-A, N-(2-chloro-6-methylphenyl)-2-[[6-[4-(2-hydroxyethyl)-1-piperazinyl]-2-methyl-4-pyrimidinyl]amino]-5-thiazolecarboxamide]
Modulated by BMS-A: ANXA3 (annexin A3) expression [1, 2]: Decreased
Modulated by BMS-A: ARNTL2 expression [1, 2]: Decreased
Modulated by BMS-A: AXL expression [1, 2]: Decreased
Modulated by BMS-A: CST6 (cystatin E/M) expression [1, 2]: Decreased
Modulated by BMS-A: EREG (epiregulin) expression [1, 2]: Decreased
Modulated by BMS-A: FHL2 expression [1, 2]: Decreased
Modulated by BMS-A: LAMC2 (laminin, gamma 2) expression [1, 2]: Decreased
Modulated by BMS-A: PLAU (plasminogen activator, urokinase) expression [1, 2]: Decreased
Modulated by BMS-A: SCEL (sciellin) expression [1, 2]: Decreased
Modulated by BMS-A: ZBED2 expression [1, 2]: Decreased
Modulated by BMS-A (p < 0.05): AXL expression ([1]; gene AXL receptor tyrosine kinase (AXL), probe 202686_s_at, Gene No. 52, expressed in sensitive cell lines): decreased
Modulated by BMS-A (p < 0.05): ANXA3 expression ([1]; gene annexin A3 (ANXA3), probe 209369_at, Gene No. 8, expressed in sensitive cell lines): decreased
Modulated by BMS-A (p < 0.05): ARNTL2 expression ([1]; gene aryl hydrocarbon receptor nuclear translocator-like 2 (ARNTL2), probe 220658_s_at, Gene No. 100, expressed in sensitive cell lines): decreased
Modulated by BMS-A (p < 0.05): CST6 expression ([1]; gene cystatin E/M (CST6), probe 206595_at, Gene No. 15, expressed in sensitive cell lines): decreased
Modulated by BMS-A (p < 0.05): EREG expression ([1]; gene epiregulin (EREG), probe 205767_at, Gene No. 43, expressed in sensitive cell lines): decreased
Modulated by BMS-A (p < 0.05): FHL2 expression ([1]; gene four and a half LIM domains 2 (FHL2), probe 202949_s_at, Gene No. 54, expressed in sensitive cell lines): decreased
Modulated by BMS-A (p < 0.05): LAMC2 expression ([1]; gene laminin, gamma 2 (LAMC2), probe 202267_at, Gene No. 33, expressed in sensitive cell lines): decreased
Modulated by BMS-A (p < 0.05): PLAU (uPA) expression ([1]; gene plasminogen activator, urokinase (PLAU, also referred to as uPA), probe 205479_s_at, Gene No. 63, expressed in sensitive cell lines): decreased
Modulated by BMS-A (p < 0.05): SCEL expression ([1]; gene sciellin (SCEL), probe 206884_s_at, Gene No. 3, expressed in sensitive cell lines): decreased
IC50 (W99; [3]): 0.199 µM
Classification (W99; based on IC50): Sensitive (The cell lines with an IC50 lower than 0.2 μm were defined as sensitive to the compound)
IC50 (WPMY1; Homo sapiens, WPMY-1, 72 h, MTS, three days, highly resistant: concentration that consistently reduced proliferation used as IC50, read-out: mean IC50 (μM) to BMS-A): 2.5 µM
Classification (WPMY1; based on IC50): Resistant (those having an IC50 above 0.2 μm were considered to be resistant)
IC50 (RWPE2; [3]): 0.151 µM
Classification (RWPE2; based on IC50): Sensitive (The cell lines with an IC50 lower than 0.2 μm were defined as sensitive to the compound)
IC50 (NB11; [3]): 0.163 µM
Classification (NB11; based on IC50): Sensitive (The cell lines with an IC50 lower than 0.2 μm were defined as sensitive to the compound)
IC50 (LNCaP; [3]): 0.068 µM
Classification (LNCaP; based on IC50): Sensitive (The cell lines with an IC50 lower than 0.2 μm were defined as sensitive to the compound)
Classification (DU145; based on IC50): Sensitive (The cell lines with an IC50 lower than 0.2 μm were defined as sensitive to the compound)
IC50 (DU145; Homo sapiens, DU-145, 72 h, MTS, three days, read-out: mean IC50 (μM) to BMS-A): 0.057 µM
